In the supplement of paper PMC10883282:
± gives the standard deviation of the averaged measurements.

Tested on: KHOS-240S
Test: relative viability vs DMSO control (72 h) (fraction); higher = more viable cells
In short: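 Sarcoma cell lines were plated in 384 wells to reach 80–90% confluence, treated after 24 h with 2.5 µl of serially diluted compound and held 72 h at 37 °C, 5% CO2. Relative viability was taken as percent growth from ATPLite readings, averaged over up to triplicate wells. The values were rescaled so that 1 marks full and 0 marks none.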

| SMILES | relative viability (0.00017 µM) | relative viability (0.00051 µM) | relative viability (0.00152 µM) | relative viability (0.00457 µM) | relative viability (0.01372 µM) | relative viability (0.04115 µM) | relative viability (0.1235 µM) | relative viability (0.3704 µM) | relative viability (1.111 µM) | relative viability (3.333 µM) | relative viability (10 µM) |
| --- | --- | --- | --- | --- | --- | --- | --- | --- | --- | --- | --- |
| CO[C@H]1C[C@@H]2CC[C@@H](C)[C@@](O)(O2)C(=O)C(=O)N2CCCC[C@H]2C(=O)O[C@H]([C@H](C)C[C@@H]2CC[C@@H](OP(C)(C)=O)[C@H](OC)C2)CC(=O)[C@H](C)/C=C(\C)[C@@H](O)[C@@H](OC)C(=O)[C@H](C)C[C@H](C)/C=C/C=C/C=C/1C [Ridaforolimus] | 1.03 ± 0.012 | 1.03 ± 0.027 | 0.987 ± 0.027 | 0.932 ± 0.015 | 0.919 ± 0.026 | 0.898 ± 0.022 | 0.878 ± 0.014 | 0.851 ± 0.016 | 0.826 ± 0.032 | 0.777 ± 0.018 | 0.741 ± 0.017 |
| O=C(Cc1ccc(-c2ccc(OCCN3CCOCC3)cc2)cn1)NCc1ccccc1 [KX2-391] | 1.07 ± 0.025 | 1.1 ± 0.037 | 1.1 ± 0.02 | 1.07 ± 0.035 | 1.06 ± 0.049 | 0.896 ± 0.022 | 0.26 ± 0.013 | 0.221 ± 0.014 | 0.161 ± 0.011 | 0.142 ± 0.02 | 0.134 ± 0.015 |
| COc1cc2nccc(Oc3ccc(NC(=O)Nc4cc(C)on4)c(Cl)c3)c2cc1OC [Tivozanib] | 1.07 ± 0.061 | 1.07 ± 0.061 | 1.09 ± 0.071 | 1.09 ± 0.059 | 1.08 ± 0.025 | 1.07 ± 0.041 | 1.06 ± 0.018 | 1.045 ± 0.0038 | 1.02 ± 0.042 | 0.908 ± 0.027 | 0.561 ± 0.02 |
| CCc1cc2c(cc1N1CCC(N3CCOCC3)CC1)C(C)(C)c1[nH]c3cc(C#N)ccc3c1C2=O [Alectinib] | 1.06 ± 0.048 | 1.09 ± 0.075 | 1.09 ± 0.064 | 1.08 ± 0.066 | 1.06 ± 0.072 | 1.07 ± 0.069 | 1.05 ± 0.074 | 0.998 ± 0.079 | 0.996 ± 0.063 | 0.984 ± 0.054 | 0.971 ± 0.073 |
| COCc1c(-c2cc3cc(C)cc(OC)c3s2)c2c(N)ncnn2c1CN1CCNC(=O)C1 [Rogaratinib] | 1.04 ± 0.015 | 1.07 ± 0.028 | 1.07 ± 0.046 | 1.07 ± 0.061 | 1.03 ± 0.011 | 0.995 ± 0.053 | 0.9 ± 0.025 | 0.821 ± 0.019 | 0.783 ± 0.045 | 0.671 ± 0.046 | 0.511 ± 0.036 |
| CN1CCC(COc2cnc(-c3cccc(Cn4nc(-c5cccc(C#N)c5)ccc4=O)c3)nc2)CC1 [Tepotinib] | 1.09 ± 0.051 | 1.09 ± 0.014 | 1.1 ± 0.043 | 1.09 ± 0.035 | 1.04 ± 0.019 | 1.08 ± 0.045 | 1.04 ± 0.045 | 1.02 ± 0.031 | 1 ± 0.017 | 0.94 ± 0.095 | 0.593 ± 0.022 |
| Cc1cnc(Nc2ccc(OCCN3CCCC3)cc2)nc1Nc1cccc(S(=O)(=O)NC(C)(C)C)c1 [Fedratinib] | 1.07 ± 0.046 | 1.07 ± 0.047 | 1.07 ± 0.033 | 1.06 ± 0.023 | 1.05 ± 0.058 | 1.05 ± 0.094 | 0.989 ± 0.062 | 0.801 ± 0.018 | 0.412 ± 0.031 | 0.103 ± 0.011 | 0.0053 ± 0.0017 |
| Cn1cnc2c(F)c(Nc3ccc(Br)cc3F)c(C(=O)NOCCO)cc21 [Binimetinib] | 1.03 ± 0.053 | 1.06 ± 0.054 | 1.07 ± 0.067 | 1.06 ± 0.052 | 0.998 ± 0.02 | 0.975 ± 0.027 | 0.922 ± 0.04 | 0.895 ± 0.069 | 0.855 ± 0.0094 | 0.737 ± 0.027 | 0.637 ± 0.045 |
| C[C@@H]1CCN(C(=O)CC#N)C[C@@H]1N(C)c1ncnc2[nH]ccc12 [Tofacitinib] | 1.08 ± 0.068 | 1.05 ± 0.038 | 1.08 ± 0.062 | 1.09 ± 0.069 | 1.05 ± 0.031 | 1.05 ± 0.034 | 1.06 ± 0.08 | 1.03 ± 0.043 | 1.01 ± 0.076 | 0.977 ± 0.021 | 0.853 ± 0.075 |
| Nc1cc(C(F)(F)F)c(-c2cc(N3CCOCC3)nc(N3CCOCC3)n2)cn1 [Buparlisib] | 1.039 ± 0.01 | 1.02 ± 0.024 | 1.04 ± 0.012 | 1.02 ± 0.033 | 1.03 ± 0.032 | 1.03 ± 0.083 | 0.989 ± 0.023 | 0.9151 ± 0.008 | 0.708 ± 0.024 | 0.114 ± 0.0036 | 0.0584 ± 0.0016 |
| Cn1cc(-c2cc3c(N4CCN(c5ncc([C@@](C)(N)c6ccc(F)cc6)cn5)CC4)ncnn3c2)cn1 [Avapritinib] | 1.03 ± 0.022 | 1.025 ± 0.0056 | 1 ± 0.039 | 0.992 ± 0.038 | 1.02 ± 0.033 | 1.01 ± 0.014 | 0.965 ± 0.024 | 0.943 ± 0.021 | 0.84 ± 0.026 | 0.783 ± 0.027 | 0.656 ± 0.025 |
| C=CC(=O)N1CCC([C@@H]2CCNc3c(C(N)=O)c(-c4ccc(Oc5ccccc5)cc4)nn32)CC1 [Zanubrutinib] | 0.952 ± 0.026 | 0.946 ± 0.032 | 0.962 ± 0.02 | 0.9655 ± 0.007 | 0.936 ± 0.043 | 0.962 ± 0.021 | 0.957 ± 0.022 | 0.935 ± 0.037 | 0.901 ± 0.047 | 0.85 ± 0.065 | 0.839 ± 0.019 |
| CCCS(=O)(=O)Nc1ccc(F)c(C(=O)c2c[nH]c3ncc(-c4ccc(Cl)cc4)cc23)c1F [Vemurafenib] | 1.09 ± 0.063 | 1.07 ± 0.032 | 1.09 ± 0.049 | 1.08 ± 0.024 | 1.08 ± 0.026 | 1.07 ± 0.034 | 1.07 ± 0.033 | 1.07 ± 0.02 | 1.075 ± 0.0032 | 1.01 ± 0.02 | 0.708 ± 0.046 |
| COc1cc2c(Oc3ccc4[nH]c(C)cc4c3F)ncnc2cc1OCCCN1CCCC1 [Cediranib] | 1.06 ± 0.017 | 1.05 ± 0.021 | 1.082 ± 0.0088 | 1.07 ± 0.02 | 1.05 ± 0.013 | 1.03 ± 0.011 | 0.992 ± 0.015 | 0.922 ± 0.022 | 0.908 ± 0.013 | 0.906 ± 0.032 | 0.898 ± 0.015 |
| CC[C@H](Nc1ncnc2[nH]cnc12)c1nc2cccc(F)c2c(=O)n1-c1ccccc1 [Idelalisib] | 1.1 ± 0.062 | 1.11 ± 0.064 | 1.11 ± 0.056 | 1.1 ± 0.065 | 1.09 ± 0.071 | 1.08 ± 0.068 | 1.08 ± 0.051 | 1.06 ± 0.078 | 1.03 ± 0.058 | 0.942 ± 0.074 | 0.901 ± 0.079 |
